Assay results published in patent US9102669B2, “Substituted piperidinyl-pyridazinyl derivatives useful as SCD 1 inhibitors” (Janssen Pharmaceutica NV, priority 2011, dated 2015).
pIC50: −log10 of the molar value. Several values for one entry are separate records, joined by “and”; a condition that tells them apart may be missing. Equal entries are not always repeated.

Tests used:
SCD1 [1] = target: SCD1 (Rattus norvegicus (Rat), UniProt P07308); assay: SCD1 enzymatic assay in rat liver microsomes (RLM); assay type: biochemical; conditions: rat liver microsomes; for inhibition at 1 µM / % Inh.@ 1 μM: 1 μM test compound; for inhibition at 1 µM: read-out: % Inh.@ 1 μM
Method: Step 1: Preparation of Rat Liver Microsome (RLM):
Sprague Dawley rats from Charles River (200-225 g) underwent 2-cycle of fast-re-feeding (24-hour fast followed by 24-hour feeding with fat-free high carbohydrate diet, Reseach Diet, D00042802). The livers were removed and homogenized 1:4 (w/v) with pre-chilled, homogenizing buffer (10 mM Tris-HCl, 0.25 M sucrose, 1 mM EDTA, pH 7.4, supplemented with protease inhibitor cocktail). The homogenate was spun at 12,000×g for 15 min at 4° C. The supernatant was then re-centrifuged at 100,000×g for 60 min at 4° C. The pellet was re-suspended in 2 ml pre-chilled […] potassium phosphate buffer, pH 7.2, 10 mM EDTA at a concentration of 20 mg/ml. The resulting rat liver microsome (RLM) preparation was stored at −80° C.
Step 2: SCD1 Enzymatic Assay in RLM:
The SCD1 enzymatic assay was done in a volume of 50 μL using 10 μg of RLM (prepared as described above) in a 96-well polypropylene plate (enzyme reaction buffer contains 0.1 M K-Phosphate Buffer, 10 mM ATP, 6 mM MgCl2. 1 mM CoA, 1 mM β-NADH, 1.6 mM L-glutathione, 20 μM Stearoyl-CoA). Stearoyl-[9,10-^3H]-CoA (ARC-0390, 1 mCi/mL, 60 Ci/mmol,) was added at a final concentration of 2 μCi/mL. Test compound was then added to the reaction mixture at the selected concentration. After incubation at room temperature for 2 hours, 5 μL 1 N HCl was added to stop the reaction, followed by addition of 25 μL of 10% charcoal. The reaction mixture was then transferred to 96-well Multiscreen plate (Millipore, Cat#MSFCN6B50). […] The measured cpm values were fitted with Sigmoidal dose-response curve fit with Graphpad Prism.

SCD1 [2] = target: SCD1 (Homo sapiens (Human), UniProt O00767); assay: SCD1 13C-palmitic acid assay in A431 cells; assay type: cell-based; conditions: read-out: A431 cells 13C-PA IC50
Method: Human epithelial carcinoma A431 cells were seeded at 100,000 cells/well in complete growth medium (DMEM, Cellgro#10-013-CM, 4.5 g/L glucose, 10% FBS) in the presence of 0.05 mg/mL human insulin (Hannas Pharmaceutical Supply Co Inc, Humanlin 100 U/ml, 4 mg/ml) in 96-well tissue culture plate. 24 hr later, the cells were washed extensively with Assay Buffer (DMEM, Cellgro#10-013-CM, 4.5 g/L glucose, supplemented with 0.05 mg/mL Human Insulin and 0.1% Fatty Acid Free BSA). […] The cells were then returned to the tissue culture incubator (37° C. and 5% CO2) for 4 hrs. At the end of incubation, the cells were washed three times with 200 μL/well Hanks buffer (HBSS) and then stored at −20° C. until extraction.
For fatty acid extraction, after thawing out the plates, 40 μL of 1N KOH (containing 5 μM of internal standard 7,7,8,8-D4 palmitate) was added to each well and cell plates were incubated at 37° C. for 30 minutes. […] Acetonitrile (100 μL) was then added to extract fatty acids, followed by centrifugation at 3000 rpm for 10 minutes. 75 μL of extract was then transferred to a new glass vial in a 96-well cluster plate. 5 μL was injected for LC/MS analysis for detection of ^13C-palmitic acid and ^13C-palmitoleic acid. Formation of product ^13C-palmitoleic acid was determined as an index of SCD1 activity.
LC/MS analysis was performed as following. An Agilent 1100 Liquid Chromatographic System (Palo Alto, Calif.) consisting of a binary pump, a degasser and an autosampler was used. Separation of free fatty acids was performed on a Zorbax SB-C8 column (2.1×50 mm, particle size=3.5 μm). An isocratic elution was carried out with 10 mM triethylamine acetate in water: acetonitrile (3:7) at a flow rate of 0.3 mL/min. The column temperature was set at 30° C. and the sample injection volume was 5 μL. The LC run cycle was 4 min. A Micromass triple-quadrupole Quattro Micro mass […] (Waters, Beverly, Mass.) was interfaced with the LC system through a Z-spray electrospray ion source and was operated in the negative ion mode. Nitrogen was used as nebulizing gas, desolvation gas and cone curtain gas and argon was chosen as collision gas. The triple quadrupole MS source parameters were set as follows: capillary voltage, 3200V; cone voltage, 25V; exctractor 2V; source temperature, 120° C.; desolvation temperature, 300° C.; cone gas flow, 50 L/h; and desolvation gas flow, 700 L/h. […] MassLynx software version 4.0 was used for system control and data processing. The signal of U-^13C-palmitoleic acid was normalized to an internal standard.

Sequence of SCD1 (Rattus norvegicus (Rat), UniProt P07308) (P07308 whole entry): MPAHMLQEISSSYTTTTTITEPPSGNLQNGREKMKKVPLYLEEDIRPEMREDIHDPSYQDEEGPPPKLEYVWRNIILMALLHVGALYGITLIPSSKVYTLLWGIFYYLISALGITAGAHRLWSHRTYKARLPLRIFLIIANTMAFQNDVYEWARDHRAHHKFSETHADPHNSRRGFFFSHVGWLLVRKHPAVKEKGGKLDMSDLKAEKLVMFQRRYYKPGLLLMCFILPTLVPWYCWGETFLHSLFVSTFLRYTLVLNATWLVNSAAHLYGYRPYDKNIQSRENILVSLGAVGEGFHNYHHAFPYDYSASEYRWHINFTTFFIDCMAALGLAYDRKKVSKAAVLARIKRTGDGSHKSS
Sequence of SCD1 (Homo sapiens (Human), UniProt O00767) (O00767 whole entry): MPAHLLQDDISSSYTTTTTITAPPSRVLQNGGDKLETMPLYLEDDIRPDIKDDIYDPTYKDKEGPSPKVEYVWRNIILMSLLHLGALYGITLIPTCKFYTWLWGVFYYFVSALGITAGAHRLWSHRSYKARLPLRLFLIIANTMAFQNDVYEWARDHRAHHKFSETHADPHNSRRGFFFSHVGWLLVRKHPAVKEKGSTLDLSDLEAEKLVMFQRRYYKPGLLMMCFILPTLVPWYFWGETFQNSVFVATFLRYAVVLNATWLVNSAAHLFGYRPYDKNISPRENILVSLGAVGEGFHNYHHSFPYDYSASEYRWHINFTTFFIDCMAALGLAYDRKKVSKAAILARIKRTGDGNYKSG

SMILES	inhibition at 1 µM (SCD1 [1])	pIC50 (SCD1 [1])	pIC50 (SCD1 [2])	% Inh.@ 1 μM (SCD1 [1])
OCc1cn(-c2ccc(N3CCC(N4CCc5ccc(F)cc54)CC3)nn2)cn1 [Compound #15]	101%	7.96	8.52	–
Cc1cnn(-c2ccc(N3CCC(N4CCc5ccc(F)cc54)CC3)nn2)c1 [Compound #16, 6-fluoro-1-(1-(6-(4-methyl-1H-pyrazol-1-yl)pyridazin-3-yl)piperidin-4-yl)indoline]	100%	7.68	7.64	–
CCn1cc(-c2ccc(N3CCC(N4CCc5ccc(F)cc54)CC3)nn2)cn1 [Compound #21, 1-(1-(6-(1-ethyl-1H-pyrazol-4-yl)pyridazin-3-yl)piperidin-4-yl)-6-fluoroindoline]	94%	7.77	7.40 and 7.72	–
Cc1csc(-c2ccc(N3CCC(N4CCc5ccc(F)cc54)CC3)nn2)n1 [Compound #29, 2-(6-(4-(6-fluoroindolin-1-yl)piperidin-1-yl)pyridazin-3-yl)-4-methylthiazole]	97%	8.15	8.70	–
Cc1ccc(-c2ccc(N3CCC(N4CCc5ccc(F)cc54)CC3)nn2)cn1 [Compound #30, 6-fluoro-1-(1-(6-(6-methylpyridin-3-yl)pyridazin-3-yl)piperidin-4-yl)indoline]	95%	8.22 and 7.72	8.70 and 8.52	99%
Cc1cnc(-c2ccc(N3CCC(N4CCc5ccc(F)cc54)CC3)nn2)s1 [Compound #31, 2-(6-(4-(6-fluoroindolin-1-yl)piperidin-1-yl)pyridazin-3-yl)-5-methylthiazole]	97%	7.51	8.40 and 7.72	–
Cc1ccc(-c2ccc(N3CCC(N4CCc5ccc(F)cc54)CC3)nn2)cc1 [Compound #36, 6-fluoro-1-(1-(6-(p-tolyl)pyridazin-3-yl)piperidin-4-yl)indoline]	92%	7.10	8.52 and 7.74	–
COc1ccc(-c2ccc(N3CCC(N4CCc5ccc(F)cc54)CC3)nn2)cn1 [Compound #37, 6-fluoro-1-(1-(6-(6-methoxypyridin-3-yl)pyridazin-3-yl)piperidin-4-yl)indoline]	98%	7.92	8.40	–
CNC(=O)c1ccc(-c2ccc(N3CCC(N4CCc5ccc(F)cc54)CC3)nn2)cn1 [Compound #42, 5-(6-(4-(6-fluoroindolin-1-yl)piperidin-1-yl)pyridazin-3-yl)-N-methylpicolinamide]	71%	7.46	8.22	–
OCCc1cnn(-c2ccc(N3CCC(N4CCc5ccc(F)cc54)CC3)nn2)c1 [Compound #43, 2-(1-(6-(4-(6-fluoroindolin-1-yl)piperidin-1-yl)pyridazin-3-yl)-1H-pyrazol-4-yl)ethanol]	90%	7.70	7.96	–
CN(C)c1ccc(-c2ccc(N3CCC(N4CCc5ccc(F)cc54)CC3)nn2)cn1 [Compound #44, 5-(6-(4-(6-fluoroindolin-1-yl)piperidin-1-yl)pyridazin-3-yl)-N,N-dimethylpyridin-2-amine]	92%	7.70 and 7.85	7.49 and 7.55	97%
Fc1ccc(-c2ccc(N3CCC(N4CCc5ccc(F)cc54)CC3)nn2)cc1 [Compound #53, 6-fluoro-1-(1-(6-(4-fluorophenyl)pyridazin-3-yl)piperidin-4-yl)indoline]	59%	6.11	–	–
Cn1cc(-c2ccc(N3CCC(n4ccc5ccc(F)cc54)CC3)nn2)cn1 [Compound #63, 6-fluoro-1-(1-(6-(1-methyl-1H-pyrazol-4-yl)pyridazin-3-yl)piperidin-4-yl)-1H-indole]	99%	–	–	–
Cn1cc(-c2ccc(N3CCC(N4CCc5c(F)cccc54)CC3)nn2)cn1 [Compound #66, 4-fluoro-1-(1-(6-(1-methyl-1H-pyrazol-4-yl)pyridazin-3-yl)piperidin-4-yl)indoline]	57%	6.17	–	–
CC(=O)NNC(=O)c1ccc(N2CCC(c3noc4ccc(F)cc34)CC2)nn1 [Compound I2, N′-acetyl-6-(4-(5-fluorobenzo[d]isoxazol-3-yl)piperidin-1-yl)pyridazine-3-carbohydrazide]	27%	–	–	–
Cc1ccc(-c2ccc(N3CCC(c4noc5ccc(F)cc45)CC3)nn2)cc1 [compound 32, 5-fluoro-3-(1-(6-(p-tolyl)pyridazin-3-yl)piperidin-4-yl)benzo[d]isoxazole]	45%	< 6.00	–	–
Cn1cc(-c2ccc(N3CCC(n4c(C(F)(F)F)nc5ccccc54)CC3)nn2)cn1 [compound 41, 1-(1-(6-(1-methyl-1H-pyrazol-4-yl)pyridazin-3-yl)piperidin-4-yl)-2-(trifiuoromethyl)-1H-benzo[d]imidazole]	38%	< 6.00	–	–
Cn1cc(-c2ccc(N3CCC(n4nnc5ccccc54)CC3)nn2)cn1 [compound 48, 1-(1-(6-(1-methyl-1H-pyrazol-4-yl)pyridazin-3-yl)piperidin-4-yl)-1H-benzo[d][1,2,3]triazoie]	60%	6.03	–	–
CC(C)(C)OC(=O)c1ccc(-c2ccc(N3CCC(N4CCc5ccc(F)cc54)CC3)nn2)cc1 [compound 55, tert-butyl 4-(6-(4-(6-fluoroindolin-1-yl)piperidin-1-yl)pyridazin-3-yl)benzoate]	8%	< 6.00	–	–
NC(=O)c1ccc(-c2ccc(N3CCC(N4CCc5ccc(F)cc54)CC3)nn2)cc1 [compound 56, 4-(6-(4-(6-fluoroindolin-1-yl)piperidin-1-yl)pyridazin-3-yl)benzamide]	28%	< 6.00	–	–
Cn1cc(-c2ccc(N3CCC(N4CCc5c(Cl)cccc54)CC3)nn2)cn1 [compound 67, 4-chloro-1-(1-(6-(1-methyl-1H-pyrazol-4-yl)pyridazin-3-yl)piperidin-4-yl)indoline]	32%	< 6.00	–	–
Cn1cc(-c2ccc(N3CCC(N4CCc5c(Cl)cc(Cl)cc54)CC3)nn2)cn1 [compound 68, 4,6-dichloro-1-(1-(6-(1-methyl-1H-pyrazol-4-yl)pyridazin-3-yl)piperidin-4-yl)indoline]	34%	–	–	–
Fc1ccc2onc(C3CCN(c4ccc(-n5cccn5)nn4)CC3)c2c1 [compound 87, 3-(1-(6-(1H-pyrazol-1-yl)pyridazin-3-yl)piperidin-4-yl)-5-fluorobenzo[d]isoxazole]	45%	–	–	–
Cc1cn(-c2ccc(N3CCC(N4CCCc5ccccc54)CC3)nn2)cn1 [compound 90, 1-(1-(6-(4-methyl-1H-imidazol-1-yl)pyridazin-3-yl)piperidin-4-yl)-1,2,3,4-tetrahydroquinoline]	29%	–	–	–
Cc1nccn1-c1ccc(N2CCC(c3noc4ccc(F)cc34)CC2)nn1 [compound 93, 5-fluoro-3-(1-(6-(2-methyl-1H-imidazol-1-yl)pyridazin-3-yl)piperidin-4-yl)benzo[d]isoxazole]	41%	–	–	–
